In patent US12583889B2, “Cell penetrating peptides” (Oxford University Innovation Limited, priority 2017, dated 2026):
Marks after values point to notes of the source that are not given here.

Legend:
[1] = test system: SMN2 exon 7 inclusion in GM03813 SMA patient fibroblasts; assay: Cell screening of peptide-PMO conjugates for SMN2 exon 7 inclusion in human SMA patient fibroblast cell culture; type: cell-based; settings: for cell activity (SMN2 exon 7 inclusion) relative to peptide 14: first screen, FIG. 4, qPCR; for cell activity (SMN2 exon 7 inclusion) relative to peptide 14 / cell activity (SMN2 exon 7 inclusion): 667 nM and 2 μM; for cell activity (SMN2 exon 7 inclusion): second screen, FIG. 5, qPCR; for cell activity (SMN2 exon 7 inclusion) relative to S* peptide: FIG. 6, 4 μM, 2 μM, 1 μM, 500 nM, 250 nM
Protocol: In order to generate further peptide candidates containing a glycosylated Serine residue for in vivo evaluation, the inventors synthesized a range of similarly glycosylated peptides, conjugated them to the same PMO therapeutic and screened the resultant P-PMO conjugates in human SMA patient fibroblast cell culture, which assesses their ability to enter cell nuclei to give exon inclusion.
GM03813 (Coriell Institute) derived from SMA type I patient fibroblast were seeded out at 2500 cells/well in 100 μl Dulbecco's modified Eagle's medium (DMEM) with GlutaMAX and 5% fetal bovine serum (FBS) (Life Technologies, Inc.) in 96 well plates, and incubated for 16 h in a cell culture incubator (37° C., 5% CO2, 100% rel. humidity). On the next day cells were then treated with 10 μl P-PMO at different concentrations (in water) in duplicate for 24 hours. After removal of the supernatant, cells were washed once with PBS-buffer and were lysed in lysis buffer (10 mM Tris, 3 mM MgCl2, 1 mM CaCl2), 1% Triton X-100, 200 u/ml DNase I and 200 u/ml Proteinase K) for 10 min. Afterwards the lysate were transferred into a 96-well plate (Eppendorf twintec) and incubated at 75° C. for 15 min and subsequently cooled to 4° C. and used immediately. The mRNA levels of SMN2 FL, SMN2 Δ7 and GAPDH were quantified using Taqman-based qRT-PCR (Superscript® III Platinium® One Step qRT-PCR, Thermo Fisher) and SMN2 specific Primers and probes (purchased from IDT Integrated DNA Technologies). (19) SMN2 FL and Δ7 mRNAs were normalized to GAPDH. […]

human SMN2-gene = assay: Full-length SMN2 transcript qPCR in tissues of adult SMA mice after intravenous peptide-PMO conjugate; type: in vivo; settings: for full-length SMN2 transcripts, mean expression level, Brainstem / full-length SMN2 transcripts, mean expression level, Cerebellum / full-length SMN2 transcripts, mean expression level, Cortex / full-length SMN2 transcripts, mean expression level, Liver / full-length SMN2 transcripts, mean expression level, Gastroc / full-length SMN2 transcripts, mean expression level, Quad / full-length SMN2 transcripts, mean expression level, TA / full-length SMN2 transcripts, mean expression level, Cervical / full-length SMN2 transcripts, mean expression level, Lumbar / full-length SMN2 transcripts, mean expression level, Thoracic: adult SMA mice, 2x15 mg/kg IV approx. 48 hours apart, tissue 7 days post final administration, normalised to saline treated controls; for full-length SMN2 transcripts, mean expression level, Brainstem / full-length SMN2 transcripts, mean expression level, Cerebellum / full-length SMN2 transcripts, mean expression level, Cortex: Central Nervous System; for full-length SMN2 transcripts, mean expression level, Liver: Off Target; for full-length SMN2 transcripts, mean expression level, Gastroc: Skeletal Muscle (gastrocnemius); for full-length SMN2 transcripts, mean expression level, Quad: Skeletal Muscle (quadriceps); for full-length SMN2 transcripts, mean expression level, TA: Skeletal Muscle (tibialis anterior); for full-length SMN2 transcripts, mean expression level, Cervical / full-length SMN2 transcripts, mean expression level, Lumbar / full-length SMN2 transcripts, mean expression level, Thoracic: spinal cord
Text: Smn1tm1Hung/wt; […]; […] Tissues were harvested one week post administration. […] Statistical significance determined by Student'[…]≤0.00005. […] ID NO.151), Exons 7-8 Rev: [NT] ID NO.152). […] [NT] ID NO.154). […] PolJ Forward: [NT] ID NO.155); PolJ Reverse: [NT]

Ac-RBRRBRRRS*FLRBRBRBR-G [Peptide 36]
cell activity (SMN2 exon 7 inclusion) relative to peptide 14 [1]: without a large loss in cell activity

Ac-RXRRBRRXRYQFLIRXRBRXR-B [Peptide 1]
full-length SMN2 transcripts, mean expression level, Brainstem (human SMN2-gene): 1.48***
full-length SMN2 transcripts, mean expression level, Cerebellum (human SMN2-gene): 1.25*
full-length SMN2 transcripts, mean expression level, Cortex (human SMN2-gene): 1.29**
full-length SMN2 transcripts, mean expression level, Liver (human SMN2-gene): 2.81
full-length SMN2 transcripts, mean expression level, Gastroc (human SMN2-gene): 3.03***
full-length SMN2 transcripts, mean expression level, Quad (human SMN2-gene): 3.37***
full-length SMN2 transcripts, mean expression level, TA (human SMN2-gene): 3.30***
full-length SMN2 transcripts, mean expression level, Cervical (human SMN2-gene): 1.50***
full-length SMN2 transcripts, mean expression level, Lumbar (human SMN2-gene): 1.28***
full-length SMN2 transcripts, mean expression level, Thoracic (human SMN2-gene): 1.45***

Ac-RXRRBRRFQILYRBRXR-B [Peptide 3]
full-length SMN2 transcripts, mean expression level, Brainstem (human SMN2-gene): 0.86
full-length SMN2 transcripts, mean expression level, Cerebellum (human SMN2-gene): 1.025
full-length SMN2 transcripts, mean expression level, Cortex (human SMN2-gene): 0.93
full-length SMN2 transcripts, mean expression level, Liver (human SMN2-gene): 4.57
full-length SMN2 transcripts, mean expression level, Gastroc (human SMN2-gene): 3.4
full-length SMN2 transcripts, mean expression level, Quad (human SMN2-gene): 3.35****
full-length SMN2 transcripts, mean expression level, TA (human SMN2-gene): 3.95***
full-length SMN2 transcripts, mean expression level, Cervical (human SMN2-gene): 0.92
full-length SMN2 transcripts, mean expression level, Lumbar (human SMN2-gene): 1.1
full-length SMN2 transcripts, mean expression level, Thoracic (human SMN2-gene): 1

Ac-RXRRBRRS*S*S* RBRXR-G [Peptide 68]
cell activity (SMN2 exon 7 inclusion) [1]: retained good activity in cells

Ac-RS*RRBRRBRBRXR-G [Peptide 59]
cell activity (SMN2 exon 7 inclusion) [1]: no significant alteration in activity levels

Ac-RXRRBRRS*S*RBRXR-G [Peptide 67]
cell activity (SMN2 exon 7 inclusion) [1]: retained good activity in cells

Ac-RRBRS*FLRBRBRBR-G [Peptide 26]
cell activity (SMN2 exon 7 inclusion) relative to peptide 14 [1]: slightly less active only

Ac-RBRRBRRBRS*FLRBRBRR-G [Peptide 33]
cell activity (SMN2 exon 7 inclusion) relative to peptide 14 [1]: without a large loss in cell activity

Ac-RXRRBRRXRS*RXRBRXR-G [Peptide 44]
cell activity (SMN2 exon 7 inclusion) relative to peptide 14 [1]: no significant effect on cell activity

Ac-RXRRBRRZS*RBRXR-B [Peptide 73]
cell activity (SMN2 exon 7 inclusion) at low doses ([1]; third screen, FIG. 6): good activity at low doses
cell activity (SMN2 exon 7 inclusion) relative to S* peptide ([1]; third screen): greatly improved alteration in activity levels

Ac-RBRRBRRBRS*FLRBRRR-G [Peptide 34]
cell activity (SMN2 exon 7 inclusion) relative to peptide 14 [1]: without a large loss in cell activity

Ac-RXRRS*RRBRBRXR-G [Peptide 58]
cell activity (SMN2 exon 7 inclusion) [1]: no significant alteration in activity levels

Ac-RBRRRRRS*FLRBRBRBR-G [Peptide 37]
cell activity (SMN2 exon 7 inclusion) relative to peptide 14 [1]: without a large loss in cell activity

Ac-RXRRBRRXRS*FRXRBRXR-G [Peptide 43]
cell activity (SMN2 exon 7 inclusion) relative to peptide 14 [1]: only a slightly reduced activity

Ac-RRBRRBRS*FLRBRBRBR-G [Peptide 24]
cell activity (SMN2 exon 7 inclusion) relative to peptide 14 [1]: less active than the first peptide 14

Ac-RXRXRS*RXRXR-G [Peptide 71]
cell activity (SMN2 exon 7 inclusion) [1]: remarkably good activity

Ac-RXRRBRRYQFLIRBRXR-B [Peptide 4]
full-length SMN2 transcripts, mean expression level, Brainstem (human SMN2-gene): 0.98
full-length SMN2 transcripts, mean expression level, Cerebellum (human SMN2-gene): 0.96
full-length SMN2 transcripts, mean expression level, Cortex (human SMN2-gene): 1.1
full-length SMN2 transcripts, mean expression level, Liver (human SMN2-gene): 3.26
full-length SMN2 transcripts, mean expression level, Gastroc (human SMN2-gene): 3.64****
full-length SMN2 transcripts, mean expression level, Quad (human SMN2-gene): 2.70****
full-length SMN2 transcripts, mean expression level, TA (human SMN2-gene): 4.23****
full-length SMN2 transcripts, mean expression level, Cervical (human SMN2-gene): 1.14*
full-length SMN2 transcripts, mean expression level, Lumbar (human SMN2-gene): 1
full-length SMN2 transcripts, mean expression level, Thoracic (human SMN2-gene): 1.12

Ac-RXRRBRRQFLRBRXR-B [Peptide 5]
full-length SMN2 transcripts, mean expression level, Brainstem (human SMN2-gene): 1.22
full-length SMN2 transcripts, mean expression level, Cerebellum (human SMN2-gene): 1
full-length SMN2 transcripts, mean expression level, Cortex (human SMN2-gene): 1.11
full-length SMN2 transcripts, mean expression level, Liver (human SMN2-gene): 2.73
full-length SMN2 transcripts, mean expression level, Gastroc (human SMN2-gene): 2.49****
full-length SMN2 transcripts, mean expression level, Quad (human SMN2-gene): 2.46****
full-length SMN2 transcripts, mean expression level, TA (human SMN2-gene): 2.80****
full-length SMN2 transcripts, mean expression level, Cervical (human SMN2-gene): 1.24*
full-length SMN2 transcripts, mean expression level, Lumbar (human SMN2-gene): 1.25*
full-length SMN2 transcripts, mean expression level, Thoracic (human SMN2-gene): 1.23

Ac-RXRRBRRXR S*FLRXRBRXR-BB [Peptide 14]
cell penetration in several compartments of the central nervous system and the skeletal muscle compared with currently available peptides 1-7 (human SMN2-gene; Table 3 data): increased
full-length SMN2 transcripts, mean expression level, Brainstem (human SMN2-gene): 1.97***
full-length SMN2 transcripts, mean expression level, Cerebellum (human SMN2-gene): 1.26
full-length SMN2 transcripts, mean expression level, Cortex (human SMN2-gene): 1.50*
full-length SMN2 transcripts, mean expression level, Liver (human SMN2-gene): 3.45
full-length SMN2 transcripts, mean expression level, Gastroc (human SMN2-gene): 2.82****
full-length SMN2 transcripts, mean expression level, Quad (human SMN2-gene): 2.45***
full-length SMN2 transcripts, mean expression level, TA (human SMN2-gene): 3.24****
full-length SMN2 transcripts, mean expression level, Cervical (human SMN2-gene): 1.23**
full-length SMN2 transcripts, mean expression level, Lumbar (human SMN2-gene): 2.23
full-length SMN2 transcripts, mean expression level, Thoracic (human SMN2-gene): 2.38**
increase in cell penetration / exon inclusion compared with the currently available peptide conjugated to the same antisense oligonucleotide (human SMN2-gene; in vivo, Table 3 data, peptide 17 versus peptide 6, peptide 14 versus peptide 2): up to 59.7%

Ac-RBRRBRRBRS*FLRBRBR-G [Peptide 29]
cell activity (SMN2 exon 7 inclusion) relative to peptide 14 [1]: less active than the first peptide 14

Ac-RXRRBRRXRRXRBRXRS*FL-G [Peptide 48]
cell activity (SMN2 exon 7 inclusion) relative to peptide 14 [1]: almost as active as the first peptide

Ac-RXRRBRRFS^1*RBRXR-B [Peptide 74]
cell activity (SMN2 exon 7 inclusion) relative to S* peptide ([1]; third screen): Improved activity

Ac-RBRBRS*RBRBR-G [Peptide 70]
cell activity (SMN2 exon 7 inclusion) [1]: remarkably good activity

Ac-RXRRBRRFLRBRXR-B [Peptide 6]
full-length SMN2 transcripts, mean expression level, Brainstem (human SMN2-gene): 1.38**
full-length SMN2 transcripts, mean expression level, Cerebellum (human SMN2-gene): 1.05
full-length SMN2 transcripts, mean expression level, Cortex (human SMN2-gene): 1.13
full-length SMN2 transcripts, mean expression level, Liver (human SMN2-gene): 2.78
full-length SMN2 transcripts, mean expression level, Gastroc (human SMN2-gene): 3.22****
full-length SMN2 transcripts, mean expression level, Quad (human SMN2-gene): 2.89***
full-length SMN2 transcripts, mean expression level, Cervical (human SMN2-gene): 0.88**
full-length SMN2 transcripts, mean expression level, Lumbar (human SMN2-gene): 1.23*
full-length SMN2 transcripts, mean expression level, Thoracic (human SMN2-gene): 1.37*

Ac-RXRRBRRXRQFLRXRBRXR-B [Peptide 2]
full-length SMN2 transcripts, mean expression level, Brainstem (human SMN2-gene): 1.36***
full-length SMN2 transcripts, mean expression level, Cerebellum (human SMN2-gene): 1.15*
full-length SMN2 transcripts, mean expression level, Cortex (human SMN2-gene): 1.16*
full-length SMN2 transcripts, mean expression level, Liver (human SMN2-gene): 2.91
full-length SMN2 transcripts, mean expression level, Gastroc (human SMN2-gene): 2.98****
full-length SMN2 transcripts, mean expression level, Quad (human SMN2-gene): 2.52****
full-length SMN2 transcripts, mean expression level, TA (human SMN2-gene): 3.45****
full-length SMN2 transcripts, mean expression level, Cervical (human SMN2-gene): 1.78**
full-length SMN2 transcripts, mean expression level, Lumbar (human SMN2-gene): 1.48**
full-length SMN2 transcripts, mean expression level, Thoracic (human SMN2-gene): 1.49*

Ac-RBRRBRRBR S*FL RBRBRBR-G [Peptide 18]
cell activity (SMN2 exon 7 inclusion) relative to peptide 14 [1]: no significant effect on cell activity

Ac-RXRRBRFQILYRBRXR-B [Peptide 7]
full-length SMN2 transcripts, mean expression level, Brainstem (human SMN2-gene): 1.11
full-length SMN2 transcripts, mean expression level, Cerebellum (human SMN2-gene): 0.97
full-length SMN2 transcripts, mean expression level, Cortex (human SMN2-gene): 1.01
full-length SMN2 transcripts, mean expression level, Liver (human SMN2-gene): 3.19
full-length SMN2 transcripts, mean expression level, Gastroc (human SMN2-gene): 2.92****
full-length SMN2 transcripts, mean expression level, Quad (human SMN2-gene): 2.80****
full-length SMN2 transcripts, mean expression level, TA (human SMN2-gene): 3.34****
full-length SMN2 transcripts, mean expression level, Cervical (human SMN2-gene): 1.26
full-length SMN2 transcripts, mean expression level, Lumbar (human SMN2-gene): 0.97
full-length SMN2 transcripts, mean expression level, Thoracic (human SMN2-gene): 1.33
